In assay [1] the target is T1, GsCYP630B18 with GsCPR2 (RS2) (Leptographium clavigerum, UniProt F0XBA3).
T1 construct: gene CMQ_5365; with NADPH--cytochrome P450 reductase
T1 sequence (F0XBA3 1-522): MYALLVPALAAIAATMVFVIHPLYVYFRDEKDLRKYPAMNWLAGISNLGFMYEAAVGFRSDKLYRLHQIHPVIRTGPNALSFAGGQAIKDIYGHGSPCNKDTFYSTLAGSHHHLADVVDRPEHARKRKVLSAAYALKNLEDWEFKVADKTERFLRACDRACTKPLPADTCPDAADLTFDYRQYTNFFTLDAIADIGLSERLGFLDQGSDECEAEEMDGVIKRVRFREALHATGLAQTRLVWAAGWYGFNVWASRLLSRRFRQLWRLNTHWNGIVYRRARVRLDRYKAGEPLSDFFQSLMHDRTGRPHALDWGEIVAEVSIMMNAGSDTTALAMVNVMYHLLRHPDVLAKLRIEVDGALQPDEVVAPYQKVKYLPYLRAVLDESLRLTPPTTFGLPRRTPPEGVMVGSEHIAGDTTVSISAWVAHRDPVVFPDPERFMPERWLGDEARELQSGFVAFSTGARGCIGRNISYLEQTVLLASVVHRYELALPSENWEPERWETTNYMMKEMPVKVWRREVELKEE
T1 sequence (F0XBA4 1-695 partner): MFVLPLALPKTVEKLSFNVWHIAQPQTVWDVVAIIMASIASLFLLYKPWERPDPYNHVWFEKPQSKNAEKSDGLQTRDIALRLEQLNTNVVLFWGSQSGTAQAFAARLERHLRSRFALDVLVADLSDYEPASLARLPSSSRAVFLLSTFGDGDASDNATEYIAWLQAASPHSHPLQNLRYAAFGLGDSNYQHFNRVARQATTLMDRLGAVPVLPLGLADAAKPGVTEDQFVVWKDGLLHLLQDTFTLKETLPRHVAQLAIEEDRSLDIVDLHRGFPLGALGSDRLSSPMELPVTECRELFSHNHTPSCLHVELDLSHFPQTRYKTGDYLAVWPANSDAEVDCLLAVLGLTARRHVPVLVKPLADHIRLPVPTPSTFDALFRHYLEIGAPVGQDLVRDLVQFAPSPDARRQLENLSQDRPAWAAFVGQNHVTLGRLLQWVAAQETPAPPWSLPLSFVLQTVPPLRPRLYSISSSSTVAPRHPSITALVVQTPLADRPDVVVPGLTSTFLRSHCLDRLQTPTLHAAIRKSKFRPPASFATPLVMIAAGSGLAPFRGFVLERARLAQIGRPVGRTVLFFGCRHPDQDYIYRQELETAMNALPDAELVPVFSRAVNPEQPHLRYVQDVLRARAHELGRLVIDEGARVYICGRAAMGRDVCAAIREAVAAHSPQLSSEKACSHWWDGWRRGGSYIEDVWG
Kind of assay: reconstituted membranes, LC/MS of 18-hydroxyoleic acid product. The following applies: NADPH, 50 μM oleic acid, pH 7.4, room temperature, 1 h; GsCPR2 as redox partner. The class given is biochemical.

Assay [2] has as its target T2, GsCYP630B18 with GsCPR1 (RS1) (Leptographium clavigerum, UniProt F0XBA3).
T2 construct: gene CMQ_5365; with NADPH--cytochrome P450 reductase
T2 sequence (F0XBA3 1-522): T1 sequence (F0XBA3 1-522)
T2 sequence (F0XUV1 1-690 partner): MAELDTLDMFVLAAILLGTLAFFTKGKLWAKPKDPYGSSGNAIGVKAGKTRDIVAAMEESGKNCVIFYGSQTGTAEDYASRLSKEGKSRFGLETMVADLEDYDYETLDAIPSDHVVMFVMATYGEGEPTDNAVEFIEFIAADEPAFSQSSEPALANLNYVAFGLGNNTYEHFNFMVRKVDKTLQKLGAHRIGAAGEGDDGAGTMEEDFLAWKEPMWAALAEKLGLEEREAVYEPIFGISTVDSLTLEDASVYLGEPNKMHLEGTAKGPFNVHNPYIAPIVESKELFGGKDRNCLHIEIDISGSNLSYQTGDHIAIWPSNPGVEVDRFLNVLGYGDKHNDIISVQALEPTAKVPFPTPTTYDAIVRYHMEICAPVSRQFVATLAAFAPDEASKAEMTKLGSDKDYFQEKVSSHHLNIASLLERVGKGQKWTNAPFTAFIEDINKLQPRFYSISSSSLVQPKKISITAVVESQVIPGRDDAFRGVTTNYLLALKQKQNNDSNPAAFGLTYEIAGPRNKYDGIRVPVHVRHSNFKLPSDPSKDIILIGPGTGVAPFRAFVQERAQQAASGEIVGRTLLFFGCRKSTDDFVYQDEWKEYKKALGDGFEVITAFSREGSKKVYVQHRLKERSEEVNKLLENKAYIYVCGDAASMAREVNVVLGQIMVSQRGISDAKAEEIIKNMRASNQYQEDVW
The description is as above. Particulars: NADPH, 50 μM oleic acid, pH 7.4, room temperature, 1 h; GsCPR1 as redox partner. It counts as biochemical.

The structures appear in SMILES notation.

On to `CCCCCCCC/C=C\CCCCCCCC(=O)O` [oleic acid], for which the “reconstituted membranes, LC/MS of 18-hydroxyoleic acid product” value in assay [1] is “CYP630B18 converted oleic acid, but none of the other tested compounds”; in assay [2], “CYP630B18 converted oleic acid, but none of the other tested compounds”.

These data come from paper PMC4368105, “Oleic Acid Metabolism via a Conserved Cytochrome P450 System-Mediated ω-Hydroxylation in the Bark Beetle-Associated Fungus Grosmannia clavigera” (PLoS ONE, 2015).
